Measured values reported in patent US6375926B1, “Labelled elastase inhibitors” (Amersham International PLC, priority 1996, dated 2002).
Where two headings read alike, the source gives them in different places. Values belong to the compound of their own block, whether it stands above or below them.

Legend:
[1] = test system: isolated human white cells (granulocytes; monocytes + lymphocytes); assay: In vitro cell uptake in isolated human white cells; assay type: cell-based; details: for selectivity for granulocytes over a mixture of monocytes/lymphocytes: approximately equivalent numbers of monocytes/lymphocytes and granulocytes present; for % uptake in Gran. (granulocytes), WHITE CELLS / % uptake in Mon. (monocytes + lymphocytes), WHITE CELLS: isolated human white cells, 30 minutes at 37° C., radiolabelled compound
Description: Fresh blood (30-120 ml) was anticoagulated with 1.5% ACD solution and sedimented by addition of 2 ml Hespan per 10 ml blood for 90 minutes at room temperature. The leucocyte rich platelet rich plasma supernatant was removed and centrifuged at 150 g for 5 minutes, yielding a leucocyte rich pellet and platelet rich plasma (PRP). The PRP was centrifuged at 4000 g to pellet the platelets leaving a cell free plasma (CFP). The leucocyte pellet was resuspended in a 50:50 mixture of HBSS and CFP and incubated with the radioactive compound for 30 minutes at 37° C. Free radioactive material was then removed from the cells by addition of an excess of HBSS:CFP and centrifugation of the leucocytes at 150 g for 7 minutes. The supernatant and cell pellet were taken for radioactive counting for calculation of percentage cell uptake. The distribution of radioactivity within the cell pellet was assessed by separation of the cell types using Percoll density gradient centrifugation (38%, 55% and 73% Percoll in HBSS step gradients). The residual plasma and free activity was recovered from the top of the gradient, the mononuclear cells (lymphocytes and monocytes) from the interface between 38% and 55%, and the granulocytes were recovered from the interface between 55% and 73% Percoll.

[2] = test system: mixed human red/white cells (granulocytes, monocytes + lymphocytes, erythrocytes); assay: In vitro cell uptake in mixed human red/white cells; assay type: cell-based; details: radiolabelled compound
Description: The radioactive compound was also incubated with an isolated leucocyte preparation to which an erythrocyte fraction had been added back. The packed erythrocytes obtained after blood sedimentation were washed twice with HBSS and then resuspended in their original blood volume with HBSS. Leucocytes obtained from 30 ml blood were resuspended in 0.5 ml erythrocyte suspension and 0.5 ml CFP. The cell suspension was then incubated with compound as above. Analysis of the distribution of activity in the cell pellet in the presence of red blood cells was carried out using Ficoll-Hypaque discontinuous density gradients (densities 1.04, 1.077 and 1.119 g/ml Histopaque steps).

[3] = test system: human whole blood (granulocytes, monocytes + lymphocytes, erythrocytes); assay: In vitro cell uptake in human whole blood; assay type: cell-based; details: 37° C. for 1 hour, radiolabelled compound
Description: The radioactive compound was added to 1 ml whole blood anticoagulated with ACD and incubated at 37° C. for 1 hour. The blood was diluted with HBSS and the cellular component separated by centrifugation. Distribution of activity within the cellular pellet was assessed by separation of cell fractions on Ficoll-Hypaque gradients as above.

[4] = molecular target: T1, HLE (human leucocyte elastase) (Homo sapiens, UniProt P08246); assay: Measurement of HLE inhibition potency (kinact/Ki); assay type: biochemical
T1 sequence (P08246 30-267): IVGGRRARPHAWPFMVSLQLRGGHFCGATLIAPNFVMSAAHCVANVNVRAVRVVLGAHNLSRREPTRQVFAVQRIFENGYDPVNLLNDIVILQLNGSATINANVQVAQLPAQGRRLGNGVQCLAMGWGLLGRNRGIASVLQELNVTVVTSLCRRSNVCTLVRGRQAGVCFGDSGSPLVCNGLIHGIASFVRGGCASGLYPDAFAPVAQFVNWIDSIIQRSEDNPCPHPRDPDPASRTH
Description: Inhibitor potency against HLE is described by the parameter kinact/Ki as previously reported [Knight et al., Biochem., 8160-8170, (1992)]. Lyophilised enzyme was reconstituted with TrisHCl buffer, 100 mM, 0.5M NaCl at 0.05 units/ml (approximately nanomolar concentration) in a final reaction volume of 1 ml to which was added methoxysucc-ala-ala-pro-val-pNA substrate (1 mM) and the elastase inhibitor dissolved in DMSO. The reaction was monitored by detecting the change of absorbance at 410 nm (hydrolysis of the substrate releasing p-nitroaniline) over a timescale of 25 minutes. Values of kinact/Ki were estimated according to the Knight et al method.

[5] = In vivo stability of iodinated HLE inhibitors (thyroid uptake); set-up: species or system male Wistar rats; details: i.v. injection
Description: The in vivo stability of radioiodinated HLE inhibitors was monitored by determination of the percentage uptake in the thyroid as a function of time after administration. Thus radioiodinated compounds and ^123I free iodide were injected into male Wistar rats. The percentage of injected dose distributing to the thyroid was calculated by dissection at 4 and 24 hours post injection and counting.

[6] = test system: E. coli infected rats (experimental abscess); assay: In vivo biodistribution in rats bearing experimental abscesses, direct intravenous injection; set-up: species or system male Wistar rats; details: for Relative conc. In infected area / Infected/normal / Infected/blood: directly injected i.v.; for Relative conc. In infected area: % injected dose in a % body weight; for Infected/normal: ratio of % id/g infected area to contralateral thigh; for Infected/blood: ratio of %/g infected area to blood
Description: (§1) The model: into the right gracilis (thigh) muscle of male Wistar rats (250-325 g) were injected 1 ml/kg of an E. coli suspension containing >> 5×10^8/ml organisms.
(§2) Validation: the model was validated for use in the development of diagnostic imaging agents of infection/inflammation by the intravenous injection of ^99mTc-HMPAO ex-vivo labelled human wbc or ^67Ga-citrate when the abscesses were 24 hours old. Animals were dissected between 4 and 24 hours after injection. ^99mTc-labelled red blood cells were used as a negative control.
The animals were sacrificed at either 4 or 24 hours post injection and relevant tissues dissected.

[7] = test system: E. coli infected rats (experimental abscess); assay: In vivo biodistribution of ex vivo labelled human leucocytes in E. coli infected rats; set-up: species or system male Wistar rats; details: ex vivo labelled human leucocytes injected i.v.
Description: as §1, §2
Screening of Ex vivo labelled human leucocytes in E. coli infected rats: A mixed population of human leucocytes was incubated with elastase inhibitor for 30 minutes at 37° C. The cells were then spun down and resuspended in a known volume of rat plasma for intravenous injection into rats bearing a 24 hour old abscess. Animals were dissected at 4 and 24 hours post injection.

[8] = test system: E. coli infected rats (experimental abscess); assay: In vivo biodistribution in rats bearing experimental abscesses, direct intravenous injection; set-up: species or system male Wistar rats; details: 48 hrs

Structure (SMILES): CCC[C@@H](NC(=O)N1C(=O)C(CC)(CC)[C@@H]1Oc1ccc(C(=O)N2CCN(C)CC2)cc1)c1ccc(I)cc1 [Compound 24, 4S-[4-[[(4-methyl)piperazin-1-yl]carbonyl]phenoxy]-1-[(R-α-n-propyl)-(4-iodo)benzylaminocarbonyl]-3,3-diethyl-2-azetidinone]
selectivity for granulocytes over a mixture of monocytes/lymphocytes [1]: some degree of selectivity for granulocytes | % uptake in Gran. (granulocytes), WHITE CELLS [1]: 83.2% | % uptake in Mon. (monocytes + lymphocytes), WHITE CELLS [1]: 3.4% | % uptake in Eryth. (erythrocytes), WHITE AND RED CELLS [2]: 41.7% | % uptake in Gran. (granulocytes), WHITE AND RED CELLS [2]: 40.4% | % uptake in Mon. (monocytes + lymphocytes), WHITE AND RED CELLS [2]: 4.0% | % uptake in Eryth. (erythrocytes), WHOLE BLOOD [3]: 16.6% | % uptake in Gran. (granulocytes), WHOLE BLOOD [3]: 24.3% | % uptake in Mon. (monocytes + lymphocytes), WHOLE BLOOD [3]: 13.6% | kinact/Ki (human elastase) ([4]; as listed in Table 24 beside the radiolabelled compounds): 2830000 | Potency (1/(M·s)), kinact/Ki ([4]; measured for non-radioactive iodine-labelled compounds and unlabelled chelate conjugates): 2.83e+06 M⁻¹ s⁻¹ | % dose in Thyroid ([5]; 4 hours): 0.2 % dose | % dose in Thyroid ([5]; 24 hours): 0.6 % dose | Relative conc. In infected area ([6]; 4 hrs post injection): 0.38 | Infected/normal ([6]; 4 hrs post injection): 1.3 | Infected/blood ([6]; 4 hrs post injection): 1.3 | Relative conc. In infected area ([6]; 24 hrs post injection): 0.16 | Infected/normal ([6]; 24 hrs post injection): 1.1 | Infected/blood ([6]; 24 hrs post injection): 0.9 | Infected/blood ([7]; 4 hrs post injection): 0.9 | Infected/normal ([7]; 4 hrs post injection): 1.3 | Relative conc. In infected area ([7]; 4 hrs post injection): 0.53 | Infected/blood ([7]; 24 hrs post injection): 0.9 | Infected/normal ([7]; 24 hrs post injection): 1.3 | Relative conc. In infected area ([7]; 24 hrs post injection): 0.20

kinact/KI ([4]; as listed in Table 24 beside the radiolabelled compounds, read-out: kinact/Ki (human elastase)): 32000 M⁻¹ s⁻¹ | kinact/KI ([4]; measured for non-radioactive iodine-labelled compounds and unlabelled chelate conjugates, read-out: Potency (M/sec), kinact/Ki): 32000 M⁻¹ s⁻¹ | % dose in Thyroid ([5]; 4 hours): 0.1 % dose | % dose in Thyroid ([5]; 24 hours): 0.9 % dose
Structure (SMILES): CCC1(CC)C(=O)N(C(=O)NCc2ccc(I)cc2)C1Oc1ccc(C(=O)N2CCN(C)CC2)cc1 (racemic) [Compound 4, 4-[4-[[(4-Methyl)piperazin-1-yl]carbonyl]phenoxy]-1-[(4-iodo)benzylaminocarbonyl]-3,3-diethyl-2-azetidinone]
selectivity for granulocytes over a mixture of monocytes/lymphocytes [1]: some degree of selectivity for granulocytes | % uptake in Gran. (granulocytes), WHITE CELLS [1]: 25.7% | % uptake in Mon. (monocytes + lymphocytes), WHITE CELLS [1]: 2.0% | % uptake in Eryth. (erythrocytes), WHITE AND RED CELLS [2]: 14.2% | % uptake in Gran. (granulocytes), WHITE AND RED CELLS [2]: 14.4% | % uptake in Mon. (monocytes + lymphocytes), WHITE AND RED CELLS [2]: 3.4% | % uptake in Eryth. (erythrocytes), WHOLE BLOOD [3]: 6.5% | % uptake in Gran. (granulocytes), WHOLE BLOOD [3]: 5.0% | % uptake in Mon. (monocytes + lymphocytes), WHOLE BLOOD [3]: 3.9% | uptake in the infected region compared with the ^99mTc-rbc control ([6]; ^123I-labelled, rat model of inflammation/infection): significantly better uptake in the infected region | Relative conc. In infected area ([6]; 4 hrs post injection): 0.51 | Infected/normal ([6]; 4 hrs post injection): 1.3 | Infected/blood ([6]; 4 hrs post injection): 0.62 | Relative conc. In infected area ([6]; 24 hrs post injection): 0.12 | Infected/normal ([6]; 24 hrs post injection): 1.3 | Infected/blood ([6]; 24 hrs post injection): 0.51 | Infected/blood ([7]; 4 hrs post injection): 0.61 | Infected/normal ([7]; 4 hrs post injection): 1.5 | Infected/blood ([7]; 24 hrs post injection): 0.75 | Infected/normal ([7]; 24 hrs post injection): 1.9

Relative conc. In infected area [8]: 1.1
Structure (SMILES): O=C([O-])CC(O)(CC(=O)[O-])C(=O)[O-].[67Ga+3] [^67Ga-citrate, ^67Ga citrate, reference compound]
Infected/blood [8]: 9.7 | Infected/normal [8]: 3.9 | Relative conc. In infected area ([6]; 24 hrs post injection): 0.9 | Infected/normal ([6]; 24 hrs post injection): 2.2 | Infected/blood ([6]; 24 hrs post injection): 3.9
